According to patent US20100210649A1, “PYRIDAZINONES AND FURAN-CONTAINING COMPOUNDS” (Sloan-Kettering Institute for Cancer Research, priority 2006, published 2010):
Like-named read-outs stand apart in the source and are kept apart here.

Legend:
[1] = tested on: H2444; assay: Dose response study (Alamar Blue), H2444; format: cell-based; conditions: Homo sapiens, read-out: IC50 H2444
[2] = tested on: H358; assay: Non Small Cell Lung Cancer proliferation assay (Alamar Blue reduction), H358; format: cell-based; conditions: Homo sapiens
Summary of the method: (§1)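 Dose-response run: cells were counted, dispensed at 250 cells/well onto compound, incubated 48 hours at 37° C, then incubated with Alamar Blue for an additional 48 hours before fluorescence measurement. All wells held 1% DMSO final.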

[3] = tested on: H2030; assay: Non Small Cell Lung Cancer proliferation assay (Alamar Blue reduction), H2030; format: cell-based, human
Summary of the method: as §1

[4] = tested on: H1650; assay: Non Small Cell Lung Cancer proliferation assay (Alamar Blue reduction), H1650; format: cell-based, human
Summary of the method: as §1

[5] = tested on: H1975; assay: Non Small Cell Lung Cancer proliferation assay (Alamar Blue reduction), H1975; format: cell-based, human
Summary of the method: as §1

[6] = tested on: HPL1D (human peripheral lung epithelial) cell line; assay: Cell proliferation / dose response (Alamar Blue), HPL1D; format: cell-based; conditions: read-out: IC50 HPL1D
Summary of the method: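 Dose–response proliferation was run in HPL1D human peripheral lung epithelial cells. Compound treatment lasted 48 h at 37 C, followed by alamar blue for a further 48 h. Alamar blue reduction was the read-out.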

[7] = tested on: H820; assay: Dose response study (Alamar Blue), H820; format: cell-based; conditions: Homo sapiens, read-out: IC50 H820
[8] = tested on: H2122; assay: Dose response study (Alamar Blue), H2122; format: cell-based; conditions: Homo sapiens, read-out: IC50 H2122
[9] = tested on: H3255; assay: Non Small Cell Lung Cancer proliferation assay (Alamar Blue reduction), H3255; format: cell-based, human
Summary of the method: as §1

[10] = tested on: H23; assay: Dose response study (Alamar Blue), H23; format: cell-based; conditions: Homo sapiens, read-out: IC50 H23
[11] = NCI-H2444, H2444, 12 point doubling dilution 10 uM to 5 nM, 48 h treatment, alamar blue additional 48 h
[12] = NCI-H358, H358, 12 point doubling dilution 10 uM to 5 nM, 48 h treatment, alamar blue additional 48 h, read-out: IC50 H358
[13] = NCI-H358, read-out: Dose Response (uM) H358
[14] = Homo sapiens, NCI-H2030, 48 h, H2030, 12 point doubling dilution 10 uM to 5 nM, 48 h treatment, alamar blue additional 48 h, read-out: IC50 H2030
[15] = Homo sapiens, NCI-H2030, dose response 10 M to 5 nM, IC50, read-out: Dose Response (uM) H2030
[16] = Homo sapiens, NCI-H1650, 48 h, H1650, 12 point doubling dilution 10 uM to 5 nM, 48 h treatment, alamar blue additional 48 h, read-out: IC50 H1650
[17] = Homo sapiens, NCI-H1650, dose response 10 M to 5 nM, IC50, read-out: Dose Response (uM) H1650
[18] = Homo sapiens, NCI-H1975, 48 h, H1975, 12 point doubling dilution 10 uM to 5 nM, 48 h treatment, alamar blue additional 48 h, read-out: IC50 H1975
[19] = Homo sapiens, NCI-H1975, dose response 10 M to 5 nM, IC50, read-out: Dose Response (uM) H1975
[20] = HPL1D, 12 point doubling dilution 10 uM to 5 nM, 48 h treatment, alamar blue additional 48 h
[21] = NCI-H820, H820, 12 point doubling dilution 10 uM to 5 nM, 48 h treatment, alamar blue additional 48 h
[22] = NCI-H2122, H2122, 12 point doubling dilution 10 uM to 5 nM, 48 h treatment, alamar blue additional 48 h
[23] = Homo sapiens, NCI-H3255, 48 h, H3255, 12 point doubling dilution 10 uM to 5 nM, 48 h treatment, alamar blue additional 48 h, read-out: IC50 H3255
[24] = Homo sapiens, NCI-H3255, dose response 10 M to 5 nM, IC50, read-out: Dose Response (uM) H3255
[25] = NCI-H23, H23, 12 point doubling dilution 10 uM to 5 nM, 48 h treatment, alamar blue additional 48 h
[26] = NCI-H358, 48 h, H358, 12 point doubling dilution 10 uM to 5 nM, 48 h treatment, alamar blue additional 48 h, read-out: IC50 H358
[27] = percentage inhibition, 10 μM compound in 1% DMSO (v/v)

Cc1ccc(-n2ncc(Cl)c(Cl)c2=O)cc1Cl [compound 267070]
IC50 [1, 11]: > 10 µM | IC50 [2, 12]: > 10 µM | IC50 [2, 13]: 0.97 µM | IC50 [3, 14]: > 10 µM | IC50 [3, 15]: 5.18 µM | IC50 [4, 16]: > 10 µM | IC50 [4, 17]: > 10 µM | IC50 [5, 18]: > 10 µM | IC50 [5, 19]: 0.91 µM | IC50 [6, 20]: > 10 µM | IC50 [7, 21]: > 10 µM | IC50 [8, 22]: > 10 µM | IC50 [9, 23]: > 10 µM | IC50 [9, 24]: 3.1 µM | IC50 [10, 25]: > 10 µM

Cc1ccc(-n2ncc(Cl)c(Cl)c2=O)cc1 [compound 257016]
IC50 [1, 11]: 0.41 µM | IC50 [2, 12]: 0.78 µM | IC50 [2, 13]: 0.35 µM | IC50 [3, 14]: 0.51 µM | IC50 [3, 15]: 0.65 µM | IC50 [4, 16]: 2.49 µM | IC50 [4, 17]: 2.73 µM | IC50 [5, 18]: 0.47 µM | IC50 [5, 19]: 0.32 µM | IC50 [6, 20]: 0.48 µM | IC50 [7, 21]: 0.37 µM | IC50 [8, 22]: 2.07 µM | IC50 [9, 23]: 1.53 µM | IC50 [9, 24]: 1.32 µM | IC50 [10, 25]: 0.32 µM

Cc1cc(-n2ncc(Cl)c(Cl)c2=O)ccc1Cl [compound 267065]
IC50 [1, 11]: 6.37 µM | IC50 [2, 12]: > 10 µM | IC50 [2, 13]: 1.24 µM | IC50 [3, 14]: > 10 µM | IC50 [3, 15]: > 10 µM | IC50 [4, 16]: > 10 µM | IC50 [4, 17]: > 10 µM | IC50 [5, 18]: > 10 µM | IC50 [5, 19]: 1.89 µM | IC50 [6, 20]: 6.66 µM | IC50 [7, 21]: > 10 µM | IC50 [8, 22]: > 10 µM | IC50 [9, 23]: > 10 µM | IC50 [9, 24]: > 10 µM | IC50 [10, 25]: 6.96 µM

Cc1ccc(-n2ncc(Cl)c(Cl)c2=O)cc1C [compound 257019]
IC50 [1, 11]: 0.82 µM | IC50 [2, 12]: 0.79 µM | IC50 [2, 13]: 0.24 µM | IC50 [3, 14]: 0.8 µM | IC50 [3, 15]: 0.53 µM | IC50 [4, 16]: 4.15 µM | IC50 [4, 17]: 2.4 µM | IC50 [5, 18]: 0.89 µM | IC50 [5, 19]: 0.29 µM | IC50 [6, 20]: 0.62 µM | IC50 [7, 21]: 0.67 µM | IC50 [8, 22]: 4.38 µM | IC50 [9, 23]: 2.01 µM | IC50 [9, 24]: 1.23 µM | IC50 [10, 25]: 0.69 µM

O=c1c(Cl)c(Cl)cnn1-c1ccccc1 [compound 257014]
IC50 ([1]; NCI-H2444, 48 h): 0.34 µM | IC50 [2, 26]: 0.68 µM | IC50 ([2]; NCI-H358, dose response 10 M to 5 nM, IC50, read-out: Dose Response (uM) H358): 0.31 µM | IC50 [3, 14]: 0.41 µM | IC50 [3, 15]: 0.55 µM | IC50 [4, 16]: 1.64 µM | IC50 [4, 17]: 3.18 µM | IC50 [5, 18]: 0.36 µM | IC50 [5, 19]: 0.29 µM | IC50 ([6]; 48 h): 0.38 µM | IC50 ([7]; NCI-H820, 48 h): 0.24 µM | IC50 ([8]; NCI-H2122, 48 h): 1.16 µM | IC50 [9, 23]: 1.5 µM | IC50 [9, 24]: 1.36 µM | IC50 ([10]; NCI-H23, 48 h): 0.26 µM

O=C(Nc1ccc(Cl)cc1)c1ccc([N+](=O)[O-])o1 [compound 98698, 5-nitro-furan-2-carboxylic acid (4-chloro-phenyl)-amide]
IC50 ([1]; NCI-H2444, 48 h): 2.43 µM | IC50 [2, 26]: 0.81 µM | IC50 [3, 14]: 0.91 µM | IC50 ([3]; Homo sapiens, NCI-H2030, phenylfuran-2-carboxamide SAR summary, read-out: IC50(uM) 2030): 1.12 µM | inhibition at 10 µM ([3]; Homo sapiens, NCI-H2030, primary screening, H2030, 10 μM compound in 1% DMSO (v/v), read-out: PRIMARY HTS [%] H2030 (percentage inhibition)): 17% | CONFIRMATION [%] 2030 [3, 27]: 98% | IC50 [4, 16]: 0.47 µM | IC50 ([4]; Homo sapiens, NCI-H1650, phenylfuran-2-carboxamide SAR summary, read-out: IC50(uM) 1650): 0.38 µM | inhibition at 10 µM ([4]; Homo sapiens, NCI-H1650, primary screening, H1650, 10 μM compound in 1% DMSO (v/v), read-out: PRIMARY HTS [%] H1650 (percentage inhibition)): 101% | CONFIRMATION [%] 1650 [4, 27]: 133% | IC50 [5, 18]: 2.63 µM | IC50 ([5]; Homo sapiens, NCI-H1975, phenylfuran-2-carboxamide SAR summary, read-out: IC50(uM) 1975): 0.63 µM | inhibition at 10 µM ([5]; Homo sapiens, NCI-H1975, primary screening, H1975, 10 μM compound in 1% DMSO (v/v), read-out: PRIMARY HTS [%] H1975 (percentage inhibition)): 74% | CONFIRMATION [%] 1975 [5, 27]: 57% | IC50 ([6]; 48 h): > 10 µM | IC50 ([7]; NCI-H820, 48 h): 1.83 µM | IC50 ([8]; NCI-H2122, 48 h): 3.09 µM | IC50 [9, 23]: 1.77 µM | IC50 ([9]; Homo sapiens, NCI-H3255, phenylfuran-2-carboxamide SAR summary, read-out: IC50(uM) 3255): 0.95 µM | inhibition at 10 µM ([9]; Homo sapiens, NCI-H3255, primary screening, H3255, 10 μM compound in 1% DMSO (v/v), read-out: PRIMARY HTS [%] H3255 (percentage inhibition)): 20% | CONFIRMATION [%] 3255 [9, 27]: 118% | IC50 ([10]; NCI-H23, 48 h): 0.6 µM

O=c1c(Cl)c(Cl)cnn1Cc1ccccc1 [compound 267069]
IC50 [1, 11]: 4.13 µM | IC50 [2, 12]: 6.66 µM | IC50 [2, 13]: 4.76 µM | IC50 [3, 14]: 4.01 µM | IC50 [3, 15]: 6.83 µM | IC50 [4, 16]: > 10 µM | IC50 [4, 17]: > 10 µM | IC50 [5, 18]: 3.6 µM | IC50 [5, 19]: 2.16 µM | IC50 [6, 20]: 5.25 µM | IC50 [7, 21]: 2.57 µM | IC50 [8, 22]: 9.04 µM | IC50 [9, 23]: > 10 µM | IC50 [9, 24]: 6.5 µM | IC50 [10, 25]: 2.53 µM

O=c1c(Cl)c(Cl)cnn1-c1ccc(Cl)cc1Cl [compound 267077]
IC50 [1, 11]: 4.68 µM | IC50 [2, 12]: 3.22 µM | IC50 [2, 13]: 0.14 µM | IC50 [3, 14]: 3.55 µM | IC50 [3, 15]: 1.27 µM | IC50 [4, 16]: > 10 µM | IC50 [4, 17]: 0.56 µM | IC50 [5, 18]: 2.08 µM | IC50 [5, 19]: 0.05 µM | IC50 [6, 20]: 4.95 µM | IC50 [7, 21]: 2.68 µM | IC50 [8, 22]: > 10 µM | IC50 [9, 23]: 8.75 µM | IC50 [10, 25]: 1.72 µM

NCCCOc1cccc(-n2ncc(Br)c(Br)c2=O)c1 [compound 273634]
IC50 [1, 11]: 0.4 µM | IC50 [2, 12]: 0.69 µM | IC50 [2, 13]: 0.24 µM | IC50 [3, 14]: 0.47 µM | IC50 [3, 15]: 0.67 µM | IC50 [4, 16]: 0.51 µM | IC50 [4, 17]: 1.36 µM | IC50 [5, 18]: 0.41 µM | IC50 [5, 19]: 0.44 µM | IC50 [6, 20]: 0.35 µM | IC50 [7, 21]: 0.29 µM | IC50 [8, 22]: 1.42 µM | IC50 [9, 23]: 0.99 µM | IC50 [9, 24]: 1.11 µM | IC50 [10, 25]: 0.38 µM
